According to patent publication US20210260091A1, “USE OF SALIDROSIDE AND DERIVATIVE THEREOF IN PREPARATION OF INHIBITOR MEDICAMENT FOR DISEASES OF OPHTHALMIC FIBROSIS CAUSED BY ABNORMALITIES OF EXTRACELLULAR MATRIX PROTEINS” (priority 2018, published 2021):

Assays:
[1] = Rabbit glaucoma model (1% dexamethasone eye drops), intraocular pressure; type: in vivo, New Zealand white rabbit; conditions: one week; for Average intraocular pressure, Left eye: 3 times a day, two drops, 4 h after treatment; for IOP reduction rate: left eye vs right eye; for Average intraocular pressure, Right eye: right eye as control
Method: 1. Salidroside powder was dissolved in normal saline to prepare salidroside eye drops at the concentrations of 20 μM, 25 μM, 30 μM.
2. Fitly healthy, adult New Zealand white rabbit with body weight between 2.0 to 3.0 kg, consisting of equal numbers of male and female, were chosen for study. Rabbit glaucoma model was established by dosing the animals with 1% dexamethasone eye drops on both eyes 5 times a day for a total induction time of 3 weeks. Intraocular pressure was monitored starting from week 2. Glaucoma model was considered successfully established when intraocular pressure, measured at the same time of the day, was above 22 mmHg for a week. Glaucoma model was successful established on all 50 rabbits with the average intraocular pressure of 26.07±2.03 mmHg (n=100 eyes). Rabbits were randomly divided into 5 groups of 10: the normal control group, positive drug group (Travatan®, 0.004% travoprost eye drops), and three salidroside groups (20 μM, 25 μM, 30 μM salidroside).
Positive drug group was treated with Travatan® in the left eye, three times a day, two drops each time. Intraocular pressure was measured 4 hours after treatment. Treatment lasted for two weeks. The three salidroside groups were treated with salidroside eye drops three times a day, two drops each time. Intraocular pressure was measured 4 hours after treatment. Treatment lasted for two weeks. The normal control group received eye drops in both eyes three times a day, two drops each time. Intraocular pressure was measured 4 hours after receiving eye drops. Eye drops were administered for 2 weeks.
One week after the start of experiment, the average pressure for each eye after each measurement in each group is shown in Table 1.

[2] = Mouse glaucoma model (intravitreal TGF-β2 overexpression adenovirus vector), intraocular pressure; type: in vivo, Balb/cJ mice; conditions: 40 mg/kg intraperitoneal once daily
Method: 1. Salidroside powder was dissolved in normal saline to make 40 mg/kg salidroside solution. 2. Male Balb/cJ mice 8 to 12 weeks old and weighted about […] were used. The selected mice met the requirement of the first-level animal standards. Mice and feed were provided by the Experimental Animal Center of the Ninth People's Hospital, affiliated with Shanghai Jiaotong University School of Medicine. Vivarium temperature was controlled between 15 to 20° C., and relative humidity was 55 to 75%, with 12h light. Food and drinking water were on an ad libitum basis. Mice that met the inclusion criteria were selected: (1) no eye disease; (2) pupillary light reflexes in both eyes in response to direct and indirect light were normal. 4. Intraocular pressure in both the left and the right eye of each conscious mouse was measured and recorded. 5. Weight measurements of each mouse were taken. 4% chloral hydrate was injected to anaesthetize mice at a dose of 10 μL/g body weight; 6. Mouse glaucoma model: 3 μL TGF-β2 overexpression adenovirus vector (3×10^7 pfu/μL) was injected into the vitreous chamber to induce ocular hypertension. […] On the day of adenovirus vector intravitreal injection, mouse intraocular pressure was measured once. Intraocular pressure was measured again on the next day and subsequent selected days to avoid damage to the cornea caused by frequent measurement. […]

[3] = tested on: laminin (LN), collagen IV (Col-IV) and fibronectin (FN) mRNA in trabecular meshwork cells; test: qRT-PCR of extracellular matrix expression in dexamethasone-induced normal human trabecular meshwork cells; type: cell-based
Method: Normal Trabecular Meshwork cells (NTM) were cultured with F12 containing 10% fetal bovine serum (FBS). When the normal human trabecular meshwork cells were 75%-80% confluent, cells were digested with pancreatic enzymes and planted into a 6-well plate with 2 mL culture media per well.
Normal human normal trabecular meshwork cells were used as a untreated control group. Normal human trabecular meshwork cells with dexamethasone added were used as the experimental control group. Normal human trabecular meshwork cells with dexamethasone and different concentrations of salidroside added were used as the experimental groups (The concentration of dexamethasone used in the experimental control group and the experimental groups was 10^−7 mol/L. The concentrations of salidroside were 1, 3, 10, 30, 100 μmol/L, respectively). The trabecular meshwork cells were cultured for 0, 3, 6, 12, 24, 48 h.
Primer sequences for laminin (LN), collagen IV (Col-IV) and fibronectin (FN) mRNA were designed. Messenger RNA levels of LN, Col-IV, and FN were detected with qRT-PCR. Anti-LN, anti-Col-IV, and anti-FN antibodies were used to detect protein expression of the trabecular meshwork extracellular matrix protein in immunocytochemistry.
FIGS. 1-3 show the effect of salidroside detected by the qRT-PCR on the extracellular matrix proteins of human trabecular meshwork induced by the dexamethasone. […]

Q: Which “Average intraocular pressure, Left eye” value ([1]; 20 μM eye drops) does the source give for `OC[C@H]1O[C@@H](OCCc2ccc(O)cc2)[C@H](O)[C@@H](O)[C@@H]1O` [Salidroside, 2-(4-HYDROXYPHENYL) ETHYL-BETA-D-GLUCOPYRANOSIDE] here?
A: 15.57 ± 1.52 mmHg

Q: And the IOP reduction rate ([1]; 20 μM eye drops)?
A: 30.98%

Q: And the “Average intraocular pressure, Right eye” value ([1]; 20 μM group)?
A: 22.56 ± 1.72 mmHg

Q: And the “Average intraocular pressure, Left eye” value ([1]; 25 μM eye drops)?
A: 15.07 ± 1.19 mmHg

Q: And the IOP reduction rate ([1]; 25 μM eye drops)?
A: 34.56%

Q: And the “Average intraocular pressure, Right eye” value ([1]; 25 μM group)?
A: 23.03 ± 1.02 mmHg

Q: What about the “Average intraocular pressure, Left eye” value ([1]; 30 μM eye drops) of the same compound?
A: 14.37 ± 1.54 mmHg

Q: What about the IOP reduction rate ([1]; 30 μM eye drops) of the same compound?
A: 37.19%

Q: And the “Average intraocular pressure, Right eye” value ([1]; 30 μM group)?
A: 22.88 ± 1.09 mmHg

Q: And the “average intraocular pressure in the left eye compared with the corresponding right eye as a control” value ([1]; P<0.01)?
A: significant lowered

Q: And the “IOP-lowering effect compared with the Travatan group” value ([1]; salidroside groups 20, 25, 30 μM eye drops)?
A: better than that of the Travatan® group

Q: What about the “intraocular pressure vs glaucoma control group” value ([2]; salidroside intervention group (treated immediately after vector injection), 11th day after initiation) of the same compound?
A: statistically significantly lowered

Q: And the “intraocular pressure vs glaucoma control group” value ([2]; salidroside treatment group (treated after IOP increased and stabilized), 18th day after initiation)?
A: statistically significantly lowered

Q: What about the “expression level of TGF beta, FN, COL-IV and LN” value ([3]; applicant's previous studies, dexamethasone-induced cells, after intervention of salidroside) of the same compound?
A: decreases

Q: And the “extracellular matrix proteins of the trabecular meshwork (FN, COL-IV, LN; qRT-PCR)” value ([3]; dexamethasone 10^-7 mol/L plus salidroside 1, 3, 10, 30, 100 μmol/L, normal human trabecular meshwork cells)?
A: reduced
